Test results reported in ChEMBL document CHEMBL4138123, “Design, synthesis and biological evaluation of novel pyrazolochalcones as potential modulators of PI3K/Akt/mTOR pathway and inducers of apoptosis in breast cancer cells” (Eur J Med Chem, 2017).

Columns and labels:
Type in all cases: functional
[1] = test system: NCI-H226; test: Cytotoxicity against human NCI-H226 cells assessed as growth inhibition after 48 hrs by sulforhodamine B assay; conditions: NCI-H226, 48 h
[2] = test system: MCF7; test: Cytotoxicity against human MCF7 cells assessed as cell growth at 1 uM after 48 hrs by sulforhodamine B assay relative to control; conditions: MCF7, 48 h, read-out: Activity
[3] = test system: SNB-19; test: Cytotoxicity against human SNB19 cells assessed as cell growth at 100 uM after 48 hrs by sulforhodamine B assay relative to control; conditions: SNB-19, 48 h, read-out: Activity
[4] = test system: CCRF-CEM; test: Cytotoxicity against human CCRF-CEM cells assessed as growth inhibition after 48 hrs by sulforhodamine B assay
[5] = test system: Hs-578T; test: Cytotoxicity against human Hs 578T cells assessed as cell growth at 0.1 uM after 48 hrs by sulforhodamine B assay relative to control; conditions: read-out: Activity
[6] = test system: SW-620; test: Cytotoxicity against human SW620 cells assessed as growth inhibition after 48 hrs by sulforhodamine B assay; conditions: SW-620, 48 h
[7] = test system: SF-268; test: Cytotoxicity against human SF268 cells assessed as growth inhibition after 48 hrs by sulforhodamine B assay; conditions: SF-268, 48 h; for CC50: read-out: LC50 (the source's name)
[8] = test system: HCT-15; test: Cytotoxicity against human HCT15 cells assessed as cell growth at 0.01 uM after 48 hrs by sulforhodamine B assay relative to control; conditions: HCT-15, 48 h, read-out: Activity
[9] = test system: DU-145; test: Cytotoxicity against human DU145 cells assessed as cell growth at 10 uM after 48 hrs by sulforhodamine B assay relative to control; conditions: DU-145, 48 h, read-out: Activity
[10] = test system: MDA-MB-468; test: Cytotoxicity against human MDA-MB-468 cells assessed as cell growth at 100 uM after 48 hrs by sulforhodamine B assay relative to control; conditions: MDA-MB-468, 48 h, read-out: Activity
[11] = test system: HOP-62; test: Cytotoxicity against human HOP62 cells assessed as cell growth at 1 uM after 48 hrs by sulforhodamine B assay relative to control; conditions: HOP-62, 48 h, read-out: Activity
[12] = test system: DU-145; test: Cytotoxicity against human DU145 cells assessed as growth inhibition after 48 hrs by sulforhodamine B assay; conditions: DU-145, 48 h; for CC50: read-out: LC50 (the source's name)
[13] = test system: HCT-116; test: Cytotoxicity against human HCT116 cells assessed as growth inhibition after 48 hrs by sulforhodamine B assay; conditions: HCT-116, 48 h
[14] = test system: A549; test: Cytotoxicity against human A549/ATCC cells assessed as growth inhibition after 48 hrs by sulforhodamine B assay; conditions: A549, 48 h
[15] = test system: TK-10; test: Cytotoxicity against human TK10 cells assessed as growth inhibition after 48 hrs by sulforhodamine B assay; conditions: TK-10, 48 h
[16] = test system: OVCAR-4; test: Cytotoxicity against human OVCAR4 cells assessed as growth inhibition after 48 hrs by sulforhodamine B assay; conditions: OVCAR-4, 48 h
[17] = test system: UACC-62; test: Cytotoxicity against human UACC62 cells assessed as cell growth at 1 uM after 48 hrs by sulforhodamine B assay relative to control; conditions: UACC-62, 48 h, read-out: Activity
[18] = test system: HCT-116; test: Cytotoxicity against human HCT116 cells assessed as cell growth at 0.1 uM after 48 hrs by sulforhodamine B assay relative to control; conditions: HCT-116, 48 h, read-out: Activity
[19] = test system: A498; test: Cytotoxicity against human A498 cells assessed as cell growth at 1 uM after 48 hrs by sulforhodamine B assay relative to control; conditions: A498, 48 h, read-out: Activity
[20] = test system: HCT-15; test: Cytotoxicity against human HCT15 cells assessed as growth inhibition after 48 hrs by sulforhodamine B assay; conditions: HCT-15, 48 h
[21] = test system: NCI/ADR-RES; test: Cytotoxicity against human NCI/ADR-RES cells assessed as cell growth at 0.1 uM after 48 hrs by sulforhodamine B assay relative to control; conditions: read-out: Activity
[22] = test system: DU-145; test: Cytotoxicity against human DU145 cells assessed as cell growth at 1 uM after 48 hrs by sulforhodamine B assay relative to control; conditions: DU-145, 48 h, read-out: Activity
[23] = test system: Hs-578T; test: Cytotoxicity against human Hs 578T cells assessed as cell growth at 100 uM after 48 hrs by sulforhodamine B assay relative to control; conditions: read-out: Activity
[24] = test system: MDA-MB-231; test: Cytotoxicity against human MDA-MB-231 cells assessed as cell growth at 0.1 uM after 48 hrs by sulforhodamine B assay relative to control; conditions: MDA-MB-231, 48 h, read-out: Activity
[25] = test system: SNB-19; test: Cytotoxicity against human SNB19 cells assessed as cell growth at 0.1 uM after 48 hrs by sulforhodamine B assay relative to control; conditions: SNB-19, 48 h, read-out: Activity
[26] = test system: TK-10; test: Cytotoxicity against human TK10 cells assessed as cell growth at 1 uM after 48 hrs by sulforhodamine B assay relative to control; conditions: TK-10, 48 h, read-out: Activity
[27] = test system: NCI-H23; test: Cytotoxicity against human NCI-H23 cells assessed as cell growth at 0.01 uM after 48 hrs by sulforhodamine B assay relative to control; conditions: NCI-H23, 48 h, read-out: Activity
[28] = test system: SK-MEL-28; test: Cytotoxicity against human SK-MEL-28 cells assessed as cell growth at 10 uM after 48 hrs by sulforhodamine B assay relative to control; conditions: SK-MEL-28, 48 h, read-out: Activity
[29] = test system: KM12; test: Cytotoxicity against human KM12 cells assessed as cell growth at 10 uM after 48 hrs by sulforhodamine B assay relative to control; conditions: KM12, 48 h, read-out: Activity
[30] = test system: NCI/ADR-RES; test: Cytotoxicity against human NCI/ADR-RES cells assessed as cell growth at 100 uM after 48 hrs by sulforhodamine B assay relative to control; conditions: read-out: Activity
[31] = test system: NCI-H460; test: Cytotoxicity against human NCI-H460 cells assessed as cell growth at 1 uM after 48 hrs by sulforhodamine B assay relative to control; conditions: NCI-H460, 48 h, read-out: Activity
[32] = test system: SR; test: Cytotoxicity against human SR cells assessed as cell growth at 10 uM after 48 hrs by sulforhodamine B assay relative to control; conditions: read-out: Activity
[33] = test system: NCI-H522; test: Cytotoxicity against human NCI-H522 cells assessed as growth inhibition after 48 hrs by sulforhodamine B assay; conditions: NCI-H522, 48 h
[34] = test system: SK-OV-3; test: Cytotoxicity against human SKOV3 cells assessed as cell growth at 0.1 uM after 48 hrs by sulforhodamine B assay relative to control; conditions: SK-OV-3, 48 h, read-out: Activity
[35] = test system: 786-0; test: Cytotoxicity against human 786-0 cells assessed as cell growth at 10 uM after 48 hrs by sulforhodamine B assay relative to control; conditions: 786-0, 48 h, read-out: Activity

For `COc1ccc(C(=O)/C=C/c2cc(-c3cc(OC)c(OC)c(OC)c3)n[nH]2)cc1OC`, the TGI [1] was 3.32 µM, the growth at 1 µM [2] was 31% and the growth at 100 µM [3] was -95%. It also gave an LC50 (concentration killing 50% of cells) [4] greater than 100 µM, a TGI [4] of 3.93 µM and a growth at 0.1 µM [5] of 99%. It also gave an LC50 (lethal concentration, 50% net cell kill) [6] of 6.55 µM, a TGI [6] of 2.99 µM and a TGI [7] of 3.96 µM. For the same compound, the CC50 [7] was 8.59 µM, the growth at 0.01 µM [8] was 97% and the growth at 10 µM [9] was -89%. It also gave a growth at 100 µM [10] of -87%, a growth at 1 µM [11] of 77% and a TGI [12] of 1.84 µM. The CC50 [12] was 4.76 µM, the TGI [13] was 2.63 µM and the LC50 (concentration giving 50% net cell kill) [14] was 15.7 µM. It also gave a TGI [14] of 4.59 µM, an LC50 [15] of 5.1 µM and a TGI [15] of 2.6 µM. For the same compound, the LC50 [16] was 49.9 µM, the TGI [16] was 16.6 µM and the growth at 1 µM [17] was 95%. It also gave a growth at 0.1 µM [18] of 100%, a growth at 1 µM [19] of 78% and an LC50 [20] of 6.4 µM. For the same compound, the TGI [20] was 2.85 µM, the growth at 0.1 µM [21] was 95% and the growth at 1 µM [22] was 32%. It also gave a growth at 100 µM [23] of -15%, a growth at 0.1 µM [24] of 101% and a growth at 0.1 µM [25] of 93%. It also gave a growth at 1 µM [26] of 71%, a growth at 0.01 µM [27] of 93% and a growth at 10 µM [28] of -88%. For the same compound, the growth at 10 µM [29] was -87%, the growth at 100 µM [30] was -40% and the growth at 1 µM [31] was 70%. The growth at 10 µM [32] was 2%, the LC50 [33] was 0.825 µM and the TGI [33] was 0.39 µM. For the same compound, the growth at 0.1 µM [34] was 105% and the growth at 10 µM [35] was -88%.

Compound `COc1cc(C(=O)/C=C/c2cc(-c3ccc4c(c3)OCO4)n[nH]2)cc(OC)c1OC` has a GI50 [1] of 1.52 µM, an LC50 (concentration killing 50% of cells) [1] greater than 100 µM and a TGI [1] of 4.25 µM. For the same compound, the growth at 1 µM [2] was 53%, the growth at 100 µM [3] was -97% and the GI50 [4] was 2 µM. The LC50 (concentration killing 50% of cells) [4] was greater than 100 µM, the TGI [4] was 5.74 µM and the growth at 0.1 µM [5] was 90%. For the same compound, the GI50 [6] was 1.62 µM, the LC50 (lethal concentration, 50% net cell kill) [6] was 8.9 µM and the TGI [6] was 3.8 µM. For the same compound, the GI50 [7] was 2.45 µM, the TGI [7] was 7.64 µM and the CC50 [7] was 31.2 µM. It also gave a growth at 0.01 µM [8] of 98%, a growth at 10 µM [9] of -4% and a growth at 100 µM [10] of -80%. It also gave a growth at 1 µM [11] of 93%, a GI50 [12] of 2.92 µM and a TGI [12] of 9.16 µM. The CC50 [12] was 31.4 µM, the GI50 [13] was 1.9 µM and the LC50 [13] was greater than 100 µM. The TGI [13] was 4.63 µM, the GI50 [14] was 2.13 µM and the LC50 (concentration giving 50% net cell kill) [14] was 30.1 µM. The TGI [14] was 6.23 µM, the GI50 [15] was 2.9 µM and the LC50 [15] was 25.6 µM. For the same compound, the TGI [15] was 7.17 µM, the GI50 [16] was 0.88 µM and the LC50 [16] was 20.1 µM. The TGI [16] was 4.24 µM, the growth at 1 µM [17] was 89% and the growth at 0.1 µM [18] was 100%. For the same compound, the growth at 1 µM [19] was 79%, the GI50 [20] was 1.95 µM and the LC50 [20] was greater than 100 µM. The TGI [20] was 6.75 µM, the growth at 0.1 µM [21] was 98% and the growth at 1 µM [22] was 97%. It also gave a growth at 100 µM [23] of -22%, a growth at 0.1 µM [24] of 98% and a growth at 0.1 µM [25] of 93%. The growth at 1 µM [26] was 109%, the growth at 0.01 µM [27] was 95% and the growth at 10 µM [28] was -56%. For the same compound, the growth at 10 µM [29] was -66%, the growth at 100 µM [30] was -19% and the growth at 1 µM [31] was 90%. For the same compound, the growth at 10 µM [32] was -19%, the GI50 [33] was 1.59 µM and the LC50 [33] was 7.3 µM. It also gave a TGI [33] of 3.41 µM, a growth at 0.1 µM [34] of 105% and a growth at 10 µM [35] of -84%.
